# Reference: publication PMC9727064, “Performance assessment and economic analysis of a human Liver-Chip for predictive toxicology” (Communications Medicine, 2022)
# Counter-ions that a name gives are not always drawn. Like-named read-outs stand apart in the source and are kept apart here.
# Key:
# [1] = test system: human Liver-Chip (primary human hepatocytes); test: Liver-Chip albumin production in top channel effluent (ELISA); format: cell-based; details: expanded drug list; lowest multiplier causing a 50% reduction in albumin production; donor 1
# Text: (§1) Cycles 1 to 4 tested 6–8 concentrations in duplicate for each of 10–13 drugs. To determine which sampling strategy was optimal for cycles 1 to 4 (16 doses × 1 replicate, 8 × 2, 5 × 3, or 4 × 4), we generated three different “dose-response” synthetic datasets, each distorted by different noise levels (low, medium, or high). For each of these datasets, we performed curve-fitting analyses and calculated the Root Mean Square Error between the “true” and estimated IC50 parameter. […] Some drugs were also repeated across cycles (on different donors or at different concentrations) to ensure experimental robustness. However, to replicate a more typical study design likely to be carried out by scientists in the pharmaceutical industry, we created cycle 5 with 6 drugs, where each was tested in 4 concentrations in triplicate. For each cycle, chips were dosed with drug over 8 days (referred to as Day 0 through Day 7).
# (§2) The drug dosing concentrations were determined from the unbound human Cmax of each drug. First, the expected fraction of drug unbound in media with 2% FBS was extrapolated from plasma binding data for each drug. Dosing concentrations were then back calculated such that the unbound fraction in media would reflect relevant multiples of unbound human Cmax (Supplementary Data 1).
# (§3) On the first dosing day (Day 0), all chips were imaged using the ECHO microscope. Five hundred microliters of effluent was collected from all four reservoirs of the pod and placed in a labeled 96-well plate. After collection, all the remaining media was carefully aspirated before dosing with 3.8 mL of corresponding dosing solution. Dosing occurred on study days 0, 2, and 4 for chips flowing at 30 µL/h, and on days 0, 1, 2, 3, 4, 5, and 6 for chips flowing at 150 µL/h. Effluent collection occurred on days 1, 3, and 7.
# (§4) Top channel outlet effluents were analyzed to quantify albumin and alanine transaminase (ALT) levels on days 1, 3, and 7 using sandwich ELISA kits (Abcam, Albumin ab179887, ALT ab234578) according to vendor-provided protocols. Frozen (−80 °C) effluent samples were thawed overnight at 4 °C prior to assay. The Hamilton Vantage liquid handling platform was used to manage effluent dilutions (1:500 for albumin, neat for ALT), preparation of standard curves, and addition of antibody cocktail. Absorbance at 450 nm was measured using the SynergyNeo Microplate Reader (BioTek).
# All statistical analyses were conducted in R[21] (version 4.1.2) and figures were produced using the R package ggplot2[22] (version 3.3.5). The dose-response analysis (Fig. 4) was carried out using the popular drc R package developed by Ritz et al.[23] using the generalized log-logistic dose-response model. The error bars in Figs. 3 and 4, correspond to the standard errors of the mean. The circles in Fig. 3 correspond to the samples used to calculate the corresponding statistics. The analysis of significance in Fig. 3 was performed using paired t-test across different days (same donor) and unpaired t-test across different donors (same day). In Fig. 3 the number of samples used were n = 3 for donor two, and n = 4 for donor three. For both donors, the number of the freshly thawed hepatocyte samples used to estimate the corresponding log2(Fold Change) were n = 4. Finally, the analysis of significance in Fig. 3 was performed using paired t-test.
# [2] = cited from earlier work
# [3] = test system: human Liver-Chip (primary human hepatocytes); test: Liver-Chip alanine transaminase (ALT) release in top channel effluent (ELISA); format: cell-based
# Text: as §1, §2, §3, §4
# [4] = test system: human Liver-Chip (hepatocytes and non-parenchymal cells); details: for Morphology Donor 1: human
# Procedure: At least four to six brightfield images were acquired per chip for morphology analysis. […] Brightfield images were acquired across three fields of view on days 1, 3, and 7 for each cycle. Cytotoxicity classification was performed while acquiring images for both NPCs and hepatocytes. Images were then scored zero to four by blinded individuals (n = 2) based on severity of agglomeration of cell debris for both channels. The scoring matrix and representative images have been included in the supplement (Supplementary Fig. 1).
# Hepatocyte layer on Chips
# Non-parenchymal cell layer on Chips
# Supplementary Figure 1. (a) Representative brightfield images to depict the cellular morphology score in the top channel of the Liver-Chip which contains hepatocytes. A score of 0 represents no hepatotoxicity detected, which is defined by 95-100% healthy hepatocyte morphology, hexagonal shape containing binucleated cells, clear cell cytoplasm, distinctive cell junctions and less than 5% dead cells. A score of 1 […]
# cells. A score of 2 represents mild hepatotoxicity with > 70% monolayer of hepatocytes visible, evidence that cells have begun to lose their distinct cell junctions, many cells contain a granulated cytoplasm but < 30% are dead cells. A score of 3 represents moderate hepatotoxicity with severe granulation of cytoplasm and most of the cells have lost their junctions. Approximately 50% of the cells are considered dead. A score of 4 represents severe hepatotoxicity with agglomeration of cell debris and > 50% of the cells are considered dead. The pores on the membrane become visible as there is no longer a cellular monolayer. (b) Representative brightfield images to depict the cellular morphology score in the bottom channel of the Liver-Chip which contains non-parenchymal cells. A score of 0 represents no cytotoxicity detected, with an intact monolayer and <1% of the cells are dead. A score of 1 represents at least 90% of the monolayer is present and there are <10% dead cells. A score of 2 represents mild cytotoxicity with > 80% of the monolayer present and < 20% are dead cells. A score of 3 represents moderate cytotoxicity with > 50% of the monolayer present and < 50% are dead cells. A score of 4 represents severe cytotoxicity with > 50% of the cells are considered dead. (bar, 50 μm). […]
# [5] = test system: human Liver-Chip (hepatocyte layer); test: Liver-Chip immunofluorescence imaging (caspase 3/7, TMRM, AdipoRed/LipidTOX); format: cell-based
# Procedure: Chips were detached from pods and washed once with PBS. […] Afterwards, chips were washed with PBS and stored at 4 °C until staining. Following fixation, chips corresponding to low, medium, and high concentrations from each group were cut in half with a razor blade perpendicular to the co-culture channels. One half was used in the following staining protocol, while the other half was stored for future staining. All stains and washes utilized the bubble method, in which a small amount of air is flowed through the channel prior to bulk wash media to prevent a liquid-liquid dilution of the staining solution. […] Following 15 minutes of incubation at room temperature, each channel was washed with 200 µL of PBS (alternating channels, 2× for top and 3× for bottom). As an alternative lipid accumulation marker, 100 µL of HCS LipidTOX Deep Red (ThermoFisher, H34477) was diluted 1:1000 v/v in PBS with NucBlue counterstain and added to the top channel. After a 30 min incubation at room temperature, the chips were again allowed to reach room temperature before the channels were alternatively washed with 200 µL of PBS, the bottom channel undergoing three washes and the top channel undergoing two. Chips were then imaged using the Opera Phenix. Following lipid and DAPI staining and imaging, chips were stained with a […] (MRP2) antibody to visualize the bile canalicular structures characteristic of healthy Liver-Chips. […] Then, each channel was washed with 200 µL of PBS (alternating channels, 2× for top and 3× for bottom). […] Next, primary antibody Mouse anti-MRP2 (Abcam, ab3373) was prepared 1:100 in the original blocking buffer, diluted 1:4 in PBS. 100 µL of solution was added to each channel, and chips were stored overnight at 4 °C. The following day, each channel was washed with 200 µL of PBS (alternating channels, 2× for top and 3× for bottom). […] 100 µL of solution was added to each channel and chips incubated at room temperature, protected from light, for two hours. Then, each channel was washed with 200 µL of PBS (alternating channels, 2× for top and 3× for bottom). Chips were imaged immediately or stored at 4 °C until ready for imaging on the Opera Phenix. Chip replicates designated for live cell imaging were washed with PBS utilizing the bubble method. Chips were then cut in half perpendicular to the co-culture channels. […] The bottom chips halves were stained with NucBlue (Thermo) to visualize nuclei and Tetramethylrhodamine, methyl ester (TMRM) (ThermoFisher, I34361) to visualize active mitochondria. This staining panel was prepared in PBS with 5% FBS, with NucBlue at 2 drops per mL and TMRM at a 1:1000 ratio in original blocking buffer, diluted 1:4 in PBS. Chips were incubated in the dark at 37 °C for 30 min, and then each channel was washed with 200 µL of PBS (alternating channels, 2× for top and 3× for bottom). The chips were kept at 37 °C, protected from light, until ready for imaging with the Opera Phenix. Fluorescent confocal image acquisition was performed using the Opera Phenix High-Content Screening System and Harmony 4.9 Imaging and Analysis Software (PerkinElmer). Before acquisition, the Phenix internal environment was set to 37 °C and 5% CO2. […] Whole chips were placed directly into each slot, while top and bottom half chips were matched and combined in one chip slot. Chips were aligned flush with the adapter and one another. Any bubbles identified from visual inspection were washed out with PBS. Once ready, the stained chips were covered with transparent plate film to seal channel ports and loaded into the Phenix. […] Z-stacks were generated with 3.6 µm between slices for 28–32 planes so that the epithelium was located around the center of the stack. […] Raw images from fixed and live imaging were exported in TIFF format from the Harmony software. Using scripts written for FIJI (ImageJ), TIFFs across three color channels and multiple z-stacks were compiled into composite images for each field of view in each chip. […]
# [6] = test system: human Liver-Chip; test: Liver-Chip DILI prediction: minimum toxic concentration and margin of safety (MOS)-like figure; details: free IC50 concentration in the assay divided by total concentration of drug in human plasma at Cmax;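 note: Toxic concentration is the lowest across albumin IC50 and ALT and morphology endpoints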
# Text: Because the fundamental principles of drug action dictate that free (unbound) drug concentrations drive drug effects, we explored an alternative methodology for calculating the MOS-like values by accounting for protein binding using a previously reported approach. Accordingly, we reanalyzed the findings for the 27 drugs in our study by accounting for protein binding.
# [7] = test system: 3D spheroid cultures of primary human hepatocytes; details: cited from earlier work
# [8] = test system: clinical drug-induced liver injury; details: clinical DILI severity category 1 to 5; cited from earlier work
# [9] = plasma, cited from earlier work
# [10] = human, total plasma Cmax, ref Proctor, W.R. et al. (29)
smiles,measurement,setting,value
C[C@]12CC[C@@H]3c4ccc(O)cc4CC[C@H]3[C@@H]1CC[C@@H]2O [Beta-Estradiol],Albumin IC50 Donor 1,[1],>300 unbound human Cmax multiplier
same,Human Cmax Total,"[2]; human, total plasma Cmax, ref Sivapalasingam, S. & Steigbigel, N. H. (67)",0.0006 µM
O=C1CC2(CCCC2)CC(=O)N1CCCCN1CCN(c2ncccn2)CC1 [Buspirone],ALT Donor 1,[3]; lowest concentration causing an increase in ALT protein,> 300 multiples of the unbound human Cmax
same,Morphology Donor 1,[4],>300 multiples of the unbound human Cmax
same,IF imaging Donor 1,[5]; matched pair analysis,Apoptosis
same,Chip MOS donor 1,[6],>15
same,Human Cmax Total,[2]; [10],0.009 µM
same,Spheroid MOS,"[7]; 3D hepatic spheroids, previously published data","16,300"
same,Spheroid false negative,"[7]; Yes/No, also No for drugs not tested in spheroid",No
same,Garside DILI rank,[8],4
CN(C)CCC(c1ccc(Cl)cc1)c1ccccn1 (stereo not shown) [Chlorpheniramine maleate],Human Cmax Total,[2]; [10],0.04 µM
CN(C)CCC(c1ccc(Cl)cc1)c1ccccn1 (stereo not shown) [Chlorpheniramine],Chip MOS donor 1,[6],>200
same,Garside DILI rank,[8],3
CN1CCN(C2=Nc3cc(Cl)ccc3Nc3ccccc32)CC1 [Clozapine],Chip MOS both donors,[6]; both donors,1.8
same,Chip MOS donor 1,[6],1.8
same,Chip MOS donor 2,[6]; donor 2,5
same,Human Cmax Total,[2]; [10],2.4 µM
same,Expected Fraction Unbound in Plasma,"[9]; ref Lau, S.W.J. (65)",0.055
O=C(O)Cc1ccccc1Nc1c(Cl)cccc1Cl [Diclofenac sodium],Human Cmax Total,[2]; [10],10.1 µM
same,Expected Fraction Unbound in Plasma,"[9]; ref Lau, S.W.J. (65)",0.005
O=C(O)Cc1ccccc1Nc1c(Cl)cccc1Cl [Diclofenac],ALT change in words,[3]; Liver-Chip effluent,no elevation of ALT
same,ALT Donor 1,"[3]; expanded drug list, lowest concentration causing an increase in ALT release",> 1000 unbound human Cmax multiplier
same,Morphological injury score change in words,[4],concentration and time-dependent changes
same,Morphology Donor 1,[4],1000 unbound human Cmax multiplier
same,Immunofluorescence staining result in words,"[5]; caspase 3/7 (apoptosis) or TMRM (mitotoxicity), 7 days",apoptosis-mediated cell death
same,"Immunofluorescent findings, donor one (Supplementary Figure 3)","[5]; day 7 post-drug administration, hepatocyte layer, top channel, donor one",Apoptosis
same,IF imaging Donor 1,[5]; expanded drug list,Apoptosis
same,Chip MOS donor 1,[6],1.8
same,Spheroid MOS,[7],6.1
CCc1nn(CCCN2CCN(c3cccc(Cl)c3)CC2)c(=O)n1CCOc1ccccc1 [Nefazodone hydrochloride],Human Cmax Total,[2]; [10],4.3 µM
Cc1cc2c(cc1CC(=O)c1sccc1S(=O)(=O)[N-]c1onc(C)c1Cl)OCO2.[Na+] [Sitax(s)entan sodium salt],Human Cmax Total,"[2]; human, total plasma Cmax, ref National Center for Biotechnology Information (73)",28.6 µM
same,Expected Fraction Unbound in Plasma,"[9]; reference data from the literature, no reference",0.01
N[C@@H]1[C@H]2CN(c3nc4c(cc3F)c(=O)c(C(=O)O)cn4-c3ccc(F)cc3F)C[C@@H]12 [Trovafloxacin mesylate],Human Cmax Total,"[2]; human therapeutic total plasma Cmax from literature, ref Xu, J. J. et al. (36)",5 µM
same,Human Cmax Total,"[2]; human, total plasma Cmax, ref Xu, J. J. et al. (36)",5 µM
